Measurements taken from ChEMBL document CHEMBL2311471, “Synthesis of (E)-8-(3-chlorostyryl)caffeine analogues leading to 9-deazaxanthine derivatives as dual A(2A) antagonists/MAO-B inhibitors” (J Med Chem, 2013).
Calls of active or inactive are those of the source. No cut-off for these calls is given here.

Experiments:
[1] = biological target: T1, Amine oxidase [flavin-containing] A (Homo sapiens, UniProt P21397); experiment: Inhibition of human MAOA after 1 hr by luminescence assay
T1 sequence (P21397 whole entry): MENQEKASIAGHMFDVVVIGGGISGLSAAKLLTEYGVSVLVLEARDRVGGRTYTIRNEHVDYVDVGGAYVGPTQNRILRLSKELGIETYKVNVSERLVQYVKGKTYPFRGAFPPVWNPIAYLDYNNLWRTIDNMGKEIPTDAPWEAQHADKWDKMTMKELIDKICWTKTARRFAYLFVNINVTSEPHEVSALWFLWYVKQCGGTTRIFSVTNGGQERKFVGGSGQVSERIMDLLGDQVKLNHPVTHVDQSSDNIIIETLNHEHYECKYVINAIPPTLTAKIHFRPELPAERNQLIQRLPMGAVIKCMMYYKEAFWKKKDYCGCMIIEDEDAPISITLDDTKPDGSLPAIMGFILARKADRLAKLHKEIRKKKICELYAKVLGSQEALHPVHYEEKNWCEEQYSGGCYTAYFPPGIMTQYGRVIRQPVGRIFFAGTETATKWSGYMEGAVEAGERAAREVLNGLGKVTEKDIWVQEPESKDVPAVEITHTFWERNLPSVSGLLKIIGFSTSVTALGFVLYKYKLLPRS

[2] = biological target: 5-hydroxytryptamine receptor 2B (Homo sapiens) (UniProt P41595); experiment: Displacement of [125I](+/-)DOI from human recombinant 5HT2B receptor expressed in CHO cells at 10 uM after 60 mins by scintillation counting analysis; format: cell-based
Chain of 5-hydroxytryptamine receptor 2B (Homo sapiens) (P41595 whole entry): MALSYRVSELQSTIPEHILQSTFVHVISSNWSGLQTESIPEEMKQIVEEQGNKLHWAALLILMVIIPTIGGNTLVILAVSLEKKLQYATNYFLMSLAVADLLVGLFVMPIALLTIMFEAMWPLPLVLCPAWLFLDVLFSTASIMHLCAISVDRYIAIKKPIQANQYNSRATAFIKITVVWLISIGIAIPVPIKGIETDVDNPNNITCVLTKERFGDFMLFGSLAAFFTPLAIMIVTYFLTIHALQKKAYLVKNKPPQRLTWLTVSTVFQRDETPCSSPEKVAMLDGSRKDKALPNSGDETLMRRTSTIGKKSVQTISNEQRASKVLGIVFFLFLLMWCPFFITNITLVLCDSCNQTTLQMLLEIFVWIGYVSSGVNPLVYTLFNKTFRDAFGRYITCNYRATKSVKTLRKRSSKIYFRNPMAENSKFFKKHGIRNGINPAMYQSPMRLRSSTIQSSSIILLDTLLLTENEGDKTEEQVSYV

[3] = biological target: T2, Substance-K receptor (Homo sapiens) (UniProt P21452); experiment: Displacement of [125I]NKA human recombinant NK2 receptor expressed in CHO cells at 10 uM after 60 mins by scintillation counting analysis; format: cell-based
T2 sequence (whole entry): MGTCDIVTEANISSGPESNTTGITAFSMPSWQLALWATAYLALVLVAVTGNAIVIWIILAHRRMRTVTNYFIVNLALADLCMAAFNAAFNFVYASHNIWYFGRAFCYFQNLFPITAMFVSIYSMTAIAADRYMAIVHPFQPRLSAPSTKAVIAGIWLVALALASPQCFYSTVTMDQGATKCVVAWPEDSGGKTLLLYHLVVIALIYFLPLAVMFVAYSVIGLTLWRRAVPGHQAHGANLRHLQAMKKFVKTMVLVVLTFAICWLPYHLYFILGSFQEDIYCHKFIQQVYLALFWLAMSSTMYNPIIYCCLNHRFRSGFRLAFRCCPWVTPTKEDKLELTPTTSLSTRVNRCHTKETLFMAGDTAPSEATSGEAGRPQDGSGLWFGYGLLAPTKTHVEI

[4] = biological target: T3, Amine oxidase [flavin-containing] B (Homo sapiens, UniProt P27338); experiment: Inhibition of human MAOB after 1 hr by luminescence assay
T3 sequence (P27338 whole entry): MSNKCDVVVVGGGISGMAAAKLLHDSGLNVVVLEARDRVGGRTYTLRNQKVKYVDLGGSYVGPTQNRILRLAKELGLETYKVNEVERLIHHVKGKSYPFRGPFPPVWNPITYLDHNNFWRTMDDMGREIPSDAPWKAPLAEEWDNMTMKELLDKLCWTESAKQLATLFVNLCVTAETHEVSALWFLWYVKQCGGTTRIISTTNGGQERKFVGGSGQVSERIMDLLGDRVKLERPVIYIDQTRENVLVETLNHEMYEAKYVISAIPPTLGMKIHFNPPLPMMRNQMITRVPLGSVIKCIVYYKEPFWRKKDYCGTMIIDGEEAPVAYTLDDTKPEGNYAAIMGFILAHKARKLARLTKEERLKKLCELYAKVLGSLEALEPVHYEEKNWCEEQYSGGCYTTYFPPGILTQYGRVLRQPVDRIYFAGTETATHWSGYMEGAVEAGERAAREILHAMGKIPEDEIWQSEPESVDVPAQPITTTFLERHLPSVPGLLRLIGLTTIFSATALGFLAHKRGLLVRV

Mus musculus [5] = experiment: General behavioral response in CD1 mouse assessed as induction of striatal stereotype at 10 mg/kg, po after 90 mins by Irwin test; format: organism-based; set-up: dose 10 mg/kg, route oral; conditions: in vivo, 1.5 h
[6] = biological target: T4, Adenosine receptor A1 (Homo sapiens) (UniProt P30542); experiment: Displacement of [3H]DPCPX from human recombinant adenosine A1 receptor expressed in CHO cells at 10 uM after 60 mins by scintillation counting analysis; format: cell-based
T4 sequence (whole entry): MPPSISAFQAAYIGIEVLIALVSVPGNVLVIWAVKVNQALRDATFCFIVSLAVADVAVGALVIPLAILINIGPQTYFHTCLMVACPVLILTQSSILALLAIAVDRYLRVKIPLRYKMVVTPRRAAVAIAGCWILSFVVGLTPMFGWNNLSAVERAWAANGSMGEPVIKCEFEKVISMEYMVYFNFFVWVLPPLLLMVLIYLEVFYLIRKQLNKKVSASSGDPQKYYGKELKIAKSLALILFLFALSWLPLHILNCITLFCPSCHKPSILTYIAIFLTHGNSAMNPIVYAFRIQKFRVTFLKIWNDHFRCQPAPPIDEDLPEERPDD

Adenosine receptor A2a [7] = biological target: T5, Adenosine receptor A2a (Homo sapiens, UniProt P29274); experiment: Displacement of [3H]ZM241385 from human adenosine A2A receptor expressed in HEK293 cells after 1 hr by microbeta scintillation counting analysis; format: cell-based
T5 sequence (P29274 whole entry): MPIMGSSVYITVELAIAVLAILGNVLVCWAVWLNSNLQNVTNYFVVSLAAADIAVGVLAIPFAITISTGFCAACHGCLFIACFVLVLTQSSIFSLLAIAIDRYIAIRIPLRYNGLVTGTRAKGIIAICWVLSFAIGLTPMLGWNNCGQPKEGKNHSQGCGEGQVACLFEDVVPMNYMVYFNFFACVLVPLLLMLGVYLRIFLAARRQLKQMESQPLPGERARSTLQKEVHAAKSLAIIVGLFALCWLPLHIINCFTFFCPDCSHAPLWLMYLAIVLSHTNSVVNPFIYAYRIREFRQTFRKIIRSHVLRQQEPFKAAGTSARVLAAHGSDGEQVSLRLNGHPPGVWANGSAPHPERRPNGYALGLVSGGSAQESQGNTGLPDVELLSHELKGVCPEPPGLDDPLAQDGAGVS

Adenosine receptor A2a [8] = biological target: T5, Adenosine receptor A2a; experiment: Displacement of [3H]CGS 21680 from human recombinant adenosine A2A receptor expressed in HEK293 cells at 10 uM after 120 mins by scintillation counting analysis; format: cell-based
Mus musculus [9] = experiment: Reversal of haloperidol-induced catalepsy in po dosed CD1 mouse treated 2.5 hrs after haloperidol injection measured every 60 mins for 3 hrs; format: functional, organism-based
[10] = biological target: Sodium-dependent noradrenaline transporter (Homo sapiens) (UniProt P23975); experiment: Displacement of [3H]nisoxetine from human recombinant norepinephrine transporter expressed in CHO cells at 10 uM after 120 mins by scintillation counting analysis; format: cell-based
Chain of Sodium-dependent noradrenaline transporter (Homo sapiens) (P23975 whole entry): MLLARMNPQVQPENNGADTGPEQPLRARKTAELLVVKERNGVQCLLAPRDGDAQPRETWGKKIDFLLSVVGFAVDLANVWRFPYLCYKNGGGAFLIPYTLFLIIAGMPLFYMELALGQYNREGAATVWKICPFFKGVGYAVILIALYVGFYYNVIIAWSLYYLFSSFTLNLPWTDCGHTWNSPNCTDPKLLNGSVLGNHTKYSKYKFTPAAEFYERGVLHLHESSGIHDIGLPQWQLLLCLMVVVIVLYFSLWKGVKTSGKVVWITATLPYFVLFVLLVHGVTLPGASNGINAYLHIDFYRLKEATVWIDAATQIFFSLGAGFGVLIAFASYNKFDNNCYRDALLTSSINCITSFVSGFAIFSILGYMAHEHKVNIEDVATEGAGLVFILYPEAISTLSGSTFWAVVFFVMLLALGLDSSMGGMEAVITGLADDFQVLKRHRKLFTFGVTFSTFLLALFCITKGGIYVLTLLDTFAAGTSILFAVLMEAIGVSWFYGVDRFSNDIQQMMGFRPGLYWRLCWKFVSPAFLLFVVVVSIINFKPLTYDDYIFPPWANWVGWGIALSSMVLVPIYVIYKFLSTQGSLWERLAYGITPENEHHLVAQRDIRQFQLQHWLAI

Mus musculus [11] = experiment: General behavioral response in CD1 mouse assessed as increase in licking behavior at 100 mg/kg, po after 240 mins by Irwin test; format: ADME, organism-based; set-up: dose 100 mg/kg, route oral; conditions: in vivo, 4 h
Mus musculus [12] = experiment: Reversal of haloperidol-induced catalepsy in CD1 mouse at 10 mg/kg, po treated 2.5 hrs after haloperidol injection measured every 60 mins for 3 hrs; format: functional, organism-based; set-up: dose 10 mg/kg
Mus musculus [13] = experiment: General behavioral response in CD1 mouse assessed as induction of limbic stereotype at 30 to 100 mg/kg, po after 90 mins by Irwin test; format: organism-based, Limbic system; set-up: dose 30-100 mg/kg, route oral; conditions: in vivo, 1.5 h
Mus musculus [14] = experiment: General behavioral response in CD1 mouse assessed as induction of limbic stereotype at 10 mg/kg, po after 90 mins by Irwin test; format: organism-based, Limbic system; set-up: dose 10 mg/kg, route oral; conditions: in vivo, 1.5 h
Mus musculus [15] = experiment: Reversal of haloperidol-induced catalepsy in CD1 mouse at 30 to 100 mg/kg, po treated 2.5 hrs after haloperidol injection measured every 60 mins for 3 hrs; format: functional, organism-based
[16] = biological target: T6, Adenosine receptor A3 (Homo sapiens) (UniProt P0DMS8); experiment: Displacement of [125I]AB-MECA from human recombinant adenosine A3 receptor expressed in HEK293 cells at 10 uM after 120 mins by scintillation counting analysis; format: cell-based
T6 sequence (whole entry): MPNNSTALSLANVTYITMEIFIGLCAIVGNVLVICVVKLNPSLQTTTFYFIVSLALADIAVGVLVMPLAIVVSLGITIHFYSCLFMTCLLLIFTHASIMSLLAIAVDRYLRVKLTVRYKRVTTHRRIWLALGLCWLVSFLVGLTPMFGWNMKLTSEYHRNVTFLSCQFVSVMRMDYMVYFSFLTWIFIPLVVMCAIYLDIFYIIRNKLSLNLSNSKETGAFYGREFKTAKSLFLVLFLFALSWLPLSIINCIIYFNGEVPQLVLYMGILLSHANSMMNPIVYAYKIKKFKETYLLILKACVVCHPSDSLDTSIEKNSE

Mus musculus [17] = experiment: General behavioral response in CD1 mouse assessed as induction of striatal stereotype at 30 to 100 mg/kg, po after 90 mins by Irwin test; format: organism-based; set-up: dose 30-100 mg/kg, route oral; conditions: in vivo, 1.5 h
Adenosine receptor A2a [18] = biological target: Adenosine receptor A2a (Rattus norvegicus, UniProt P30543); experiment: Binding affinity to A2A receptor in rat brain striatal membrane by radioligand displacement assay; format: cell membranes
Chain of Adenosine receptor A2a (Rattus norvegicus, UniProt P30543) (P30543 whole entry): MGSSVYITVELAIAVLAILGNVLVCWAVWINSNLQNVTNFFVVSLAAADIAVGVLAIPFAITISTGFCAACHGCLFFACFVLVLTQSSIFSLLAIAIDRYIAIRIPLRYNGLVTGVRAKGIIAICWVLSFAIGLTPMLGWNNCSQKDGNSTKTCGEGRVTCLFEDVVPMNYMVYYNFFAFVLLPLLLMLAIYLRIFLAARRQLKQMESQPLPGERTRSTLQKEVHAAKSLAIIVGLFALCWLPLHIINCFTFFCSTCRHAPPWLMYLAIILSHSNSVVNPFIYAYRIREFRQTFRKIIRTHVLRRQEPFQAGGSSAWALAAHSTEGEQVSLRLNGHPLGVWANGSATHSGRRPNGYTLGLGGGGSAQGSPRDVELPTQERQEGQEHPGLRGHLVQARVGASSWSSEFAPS

## Cn1c(=O)c2c(cc(/C=C/c3ccc(Cl)cc3)n2C)n(C)c1=O
[1]
  IC50: 10000 nM
[2]
  inhibition: 72%
[3]
  inhibition: 75%
[4]
  IC50: 200 nM
Mus musculus [5]
  Activity: Non-toxic
[6]
  inhibition: 59%
Adenosine receptor A2a [7]
  Ki: 260 nM
Adenosine receptor A2a [8]
  inhibition: 91%
Mus musculus [9]
  Activity: Dose-dependent effect
[10]
  inhibition: 57%
Mus musculus [11]
  Activity: Toxic
Mus musculus [12]
  Activity: inactive
Mus musculus [13]
  Activity: Toxic
Mus musculus [14]
  Activity: Non-toxic
Mus musculus [15]
  Activity: Active
[16]
  inhibition: 60%
Mus musculus [17]
  Activity: Toxic

## C#CCn1c(=O)c2c(nc(C#Cc3ccccc3)n2C)n(C)c1=O
Adenosine receptor A2a [18]
  Ki: 300 nM
